In brackets after ≈: the same amount, converted by molar mass. Like-named read-outs stand apart in the source and are kept apart here.
What was measured:
[1] = system: S. aureus RN4220; conditions: Table S1: RN4220 ∆ (strain with deletion in SACOL1927)
[2] = system: S. aureus SA0077; test: microbe, parasite or virus in culture; conditions: Staphylococcus aureus
[3] = system: S. aureus SA0085; test: microbe, parasite or virus in culture; conditions: Staphylococcus aureus
[4] = system: S. aureus SA0422; test: microbe, parasite or virus in culture; conditions: Staphylococcus aureus
[5] = system: S. aureus SA0736; test: microbe, parasite or virus in culture; conditions: Staphylococcus aureus
[6] = system: S. aureus ATCC 29213; test: microbe, parasite or virus in culture; conditions: Staphylococcus aureus
[7] = system: S. aureus RN4220; test: microbe, parasite or virus in culture; conditions: Staphylococcus aureus, RN4220, read-out: MIC values
[8] = system: S. aureus SA0085; conditions: SA0085, after 40 passages in antibiotic-free media (SCCmec excision)
[9] = SA0077, read-out: MIC values, Table S1: SA0077 Abf (passages on antibiotic-free media)
[10] = SA0077, read-out: MIC values, Table S1: SA0077 DAP (derivative after 40 passages on daptomycin)
[11] = SA0077, read-out: MIC values, Table S1: SA0077 VAN (derivative after 40 passages on vancomycin)
[12] = SA0085, read-out: MIC values, Table S1: SA0085 Abf (passages on antibiotic-free media)
[13] = SA0085, read-out: MIC values, Table S1: SA0085 VAN (derivative after 40 passages on vancomycin)
[14] = SA0422, read-out: MIC values, Table S1: SA0422 DAP (derivative after 40 passages on daptomycin)
[15] = SA0736, read-out: MIC values, Table S1: SA0736 DAP-Y (40 passages on daptomycin, yellow colonies)
[16] = SA0736, read-out: MIC values, Table S1: SA0736 VAN (derivative after 40 passages on vancomycin)
[17] = ATCC29213, read-out: MIC values
[18] = ATCC29213, read-out: MIC values, Table S1: ATCC 29213 DAP (derivative after 40 passages on daptomycin)
[19] = SA0422, read-out: MIC values, Table S1: SA0422 VAN (derivative after 40 passages on vancomycin)

SMILES: CO[C@@]1(NC(=O)Cc2cccs2)C(=O)N2C(C(=O)O)=C(COC(N)=O)CS[C@@H]21 [Cefoxitin]
- MIC values [1]: 4 µg/mL (≈ 9.36 µM)
- MIC ([2]; SA0077, read-out: MIC values): 256 µg/mL (≈ 599 µM)
- MIC [2, 9]: 64 µg/mL (≈ 150 µM)
- MIC [2, 10]: 128 µg/mL (≈ 299 µM)
- MIC [2, 11]: 128 µg/mL (≈ 299 µM)
- MIC ([3]; SA0085, read-out: MIC values): 256 µg/mL (≈ 599 µM)
- MIC [3, 12]: 4 µg/mL (≈ 9.36 µM)
- MIC [3, 13]: 4 µg/mL (≈ 9.36 µM)
- MIC ([4]; SA0422, read-out: MIC values): 256 µg/mL (≈ 599 µM)
- MIC [4, 14]: 64 µg/mL (≈ 150 µM)
- MIC ([5]; SA0736, read-out: MIC values): 64 µg/mL (≈ 150 µM)
- MIC [5, 15]: 8 µg/mL (≈ 18.7 µM)
- MIC [5, 16]: 128 µg/mL (≈ 299 µM)
- MIC [6, 17]: 4 µg/mL (≈ 9.36 µM)
- MIC [6, 18]: 2 µg/mL (≈ 4.68 µM)
- MIC [7]: 4 µg/mL (≈ 9.36 µM)

SMILES: CCO/N=C(\C(=O)N[C@@H]1C(=O)N2C(C(=O)[O-])=C(Sc3nc(-c4cc[n+](C)cc4)cs3)CS[C@H]12)c1nsc(N)n1 [Ceftaroline]
- MIC values [1]: 0.5 µg/mL (≈ 0.827 µM)
- MIC ([2]; SA0077, read-out: MIC values): 1 µg/mL (≈ 1.65 µM)
- MIC [2, 10]: 0.5 µg/mL (≈ 0.827 µM)
- MIC ([3]; SA0085, read-out: MIC values): 1 µg/mL (≈ 1.65 µM)
- MIC [3, 12]: 0.5 µg/mL (≈ 0.827 µM)
- MIC [3, 13]: 0.125 µg/mL (≈ 0.207 µM)
- MIC ([4]; SA0422, read-out: MIC values): 2 µg/mL (≈ 3.31 µM)
- MIC [4, 14]: 0.5 µg/mL (≈ 0.827 µM)
- MIC [4, 19]: 1 µg/mL (≈ 1.65 µM)
- MIC ([5]; SA0736, read-out: MIC values): 1 µg/mL (≈ 1.65 µM)
- MIC ([5]; SA0736, read-out: MIC values, Table S1: SA0736 DAP-W (40 passages on daptomycin, white colonies)): 0.5 µg/mL (≈ 0.827 µM)
- MIC [5, 15]: 0.5 µg/mL (≈ 0.827 µM)
- MIC [5, 16]: 0.5 µg/mL (≈ 0.827 µM)
- MIC [6, 17]: 0.125 µg/mL (≈ 0.207 µM)
- MIC [6, 18]: 0.25 µg/mL (≈ 0.413 µM)
- MIC [7]: 0.5 µg/mL (≈ 0.827 µM)

SMILES: Cc1onc(-c2ccccc2)c1C(=O)N[C@@H]1C(=O)N2[C@@H]1SC(C)(C)[C@@H]2C(=O)O [Oxacillin]
- MIC after 40 passages in antibiotic-free media [8]: 1 µg/mL (≈ 2.49 µM)
- MIC values [1]: < 0.5 µg/mL
- MIC ([2]; SA0077, read-out: MIC values): 512 µg/mL (≈ 1280 µM)
- MIC [2, 9]: 128 µg/mL (≈ 319 µM)
- MIC [2, 10]: 256 µg/mL (≈ 638 µM)
- MIC [2, 11]: 32 µg/mL (≈ 79.7 µM)
- MIC ([3]; SA0085, read-out: MIC before passaging, SA0085, before passaging in antibiotic-free media): 512 µg/mL (≈ 1280 µM)
- MIC ([3]; SA0085, read-out: MIC values): 256 µg/mL (≈ 638 µM)
- MIC [3, 12]: 1 µg/mL (≈ 2.49 µM)
- MIC [3, 13]: 32 µg/mL (≈ 79.7 µM)
- MIC ([4]; SA0422, read-out: MIC values): 512 µg/mL (≈ 1280 µM)
- MIC [4, 14]: 2 µg/mL (≈ 4.98 µM)
- MIC [4, 19]: 256 µg/mL (≈ 638 µM)
- MIC ([5]; SA0736, read-out: MIC values): 64 µg/mL (≈ 159 µM)
- MIC [5, 15]: 16 µg/mL (≈ 39.9 µM)
- MIC [6, 17]: < 0.5 µg/mL
- MIC [7]: < 0.5 µg/mL
